One assay has as its system tubulin. The assay can be described thus: inhibition of polymerization of tubulin into microtubules (Weisenberg). The assay is classed as biochemical. The conditions noted are these: variations in optical density; read-out: IC50 (concentration which causes 50% inhibition of the polymerization). The text has this: This property was confirmed by measuring the inhibition of polymerization of tubulin into microtubules in the presence of the compounds of the invention, according to the method described by R. C. Weisenberg (Science 177, 1196-7, 1972). The results are expressed as a concentration of product which causes 50% inhibition of the polymerization. This phenomenon is readily monitored and quantified via the variations in optical density.

The next assay has as its system MCF-7. The assay can be described thus: MTT cytotoxicity test, MCF-7 (growth inhibition). As to conditions: Homo sapiens, MCF7; 1 μg/ml; MCF-7 (breast); relative to the controls; read-out: Percentage inhibition of growth MCF-7. The assay is classed as cell-based. As to the method: (§1) Thus, the cytotoxic activity of the products was evaluated using the MTT test [T. Mosman, J. Immunol. […] The amount of formazan formed (and consequently the intensity of the color obtained) is directly proportional to the number of living cells present in the culture medium at the time of the test. The lines used are of human origin, and are marketed by the American Type Cell Collection (ATCC), the reference body for the supply of standardized strains.
(§2) The experimental procedure used is essentially that described by C.
(§3) The results are expressed in the form of a percentage inhibition of growth relative to the controls.

For a further assay, the system named is T24. The assay can be described thus: MTT cytotoxicity test, T24 (growth inhibition). The assay is classed as cell-based. The conditions noted are these: Homo sapiens, T-24; 1 μg/ml; T24 (bladder); relative to the controls; read-out: Percentage inhibition of growth T24. As to the method:
as §1, §2, §3
(Tetrazolium dyes change colour on reduction, which living cells bring about.)

The subject of another assay is MXT adenocarcinoma. Kind of assay: in vivo test on MXT adenocarcinoma grafted in B6D2F1 mice. The conditions noted are these: for activity on the MXT model: in words, MXT adenocarcinoma model. The text has this:
The antitumor properties of the products of the invention were confirmed by in vivo tests, in particular on the model of mammalian MXT adenocarcinoma,which is a solid tumor that is particularly insensitive to anticancer agents [C. S. Watson, D. Medina, J. H. Clark, Cancer Res., 37, 3344 (1977); W. T. Bradher and C. A. Claridge, "Antineoplastic Agents", Wiley-Interscience (1984); T. W. Redding and A. V. Schally, Proc. Natl. Acad. Sci. U.S.A., 80, 1459 (1983)].
In this model, mice of type B6D2F1 are grafted by injection (subcutaneous) of a tumor fragment of about 10 mm^3 originating from an MXT tumor. The test products are administered via the i.p. route starting from the 17th day after the graft.

The subject of another assay is T47D. Kind of assay: MTT cytotoxicity test, T47D (growth inhibition). The assay is classed as cell-based. The conditions noted are these: Homo sapiens; 1 μg/ml; T47D (breast); relative to the controls; read-out: Percentage inhibition of growth T47. As to the method: as §1, §2, §3
For another assay, the system named is J82. The assay can be described thus: MTT cytotoxicity test, J82 (growth inhibition). The assay is classed as cell-based. As to conditions: Homo sapiens; 1 μg/ml; J82 (bladder); relative to the controls; read-out: Percentage inhibition of growth J82. As for the experimental part:
as §1, §2, §3

With `CC[C@]12C=CCN3CC[C@@]4(c5cc([C@@]6(C(=O)OC)C[C@@H]7CC(C(C)(F)F)CN(Cc8c6[nH]c6ccccc86)C7)c(OC)cc5N(C)[C@H]4[C@@](O)(C(=O)OC)[C@@H]1OC(C)=O)[C@@H]32` (stereo partly drawn) [Example 1, 19',19'-difluoro 15',20'-dihydrovinorelbine], the IC50 in the assay on tubulin stood at 2.5 µM. For the same compound, the inhibition (in general, the relative decrease from the control value, in per cent) at 1 µg/mL with MCF-7 was 68%; in the assay with T24, 70%; in the assay with T47D, 44%; in the assay on J82, 45%. The “reduction in tumor size relative to the untreated controls” value in the assay with MXT adenocarcinoma (9×40 mg/kg, i.p., starting from the 17th day after the graft) is on record as 40%.
As to `CC[C@]12C=CCN3CC[C@@]4(c5cc([C@@]6(C(=O)OC)C[C@@H]7CC(C(C)(F)F)CN(CCc8c6[nH]c6ccccc86)C7)c(OC)cc5N(C)[C@H]4[C@@](O)(C(=O)OC)[C@@H]1OC(C)=O)[C@@H]32` (stereo partly drawn) [Example 5, 20'-deoxy 19',19'-difluorovinblastine], the IC50 in the assay on tubulin is 8.9 µM. Moreover, the inhibition at 1 µg/mL in the assay with MCF-7 stood at 36%; with T24, 50%; in the assay on T47D, 27%; with J82 it was 15%.
In the same order, the values of `CC[C@]12C=CCN3CC[C@@]4(c5cc([C@@]6(C(=O)OC)C[C@@H]7CC(C(C)(F)F)CN(Cc8c6[nH]c6ccccc86)C7)c(OC)cc5N(C)[C@H]4[C@@](O)(C(=O)OC)[C@@H]1O)[C@@H]32` (stereo partly drawn) [Example 11, 17-deacetyl 19',19'-difluoro 15',20'-dihydrovinorelbine] are 2.9 µM, 45%, 51%, 30% and 60%.
In the same order, the values of `CC[C@]12C=CCN3CC[C@@]4(c5cc([C@@]6(C(=O)OC)C[C@@H]7CC(C(C)(F)F)CN(CCc8c6[nH]c6ccccc86)C7)c(OC)cc5N(C)[C@H]4[C@@](O)(C(=O)OC)[C@@H]1O)[C@@H]32` (stereo partly drawn) [Example 12, 17-deacetyl 20'-deoxy 19',19'-difluorovinblastine] are 4.2 µM, 36%, 72%, 27% and 0%.
Turning to `CC[C@]1(O)C[C@@H]2CN(CCc3c([nH]c4ccccc34)[C@@](C(=O)OC)(c3cc4c(cc3OC)N(C)[C@H]3[C@@](O)(C(=O)OC)[C@H](OC(C)=O)[C@]5(CC)C=CCN6CC[C@]43[C@@H]65)C2)C1` [VINBLASTINE, vinblastine, reference compound], in the assay with tubulin, the IC50 was found to be […]. Further, the “activity on the MXT model” value in the assay with MXT adenocarcinoma is “devoid of activity”.
For the compound `CCC1=C[C@@H]2CN(C1)Cc1c([nH]c3ccccc13)[C@@](C(=O)OC)(c1cc3c(cc1OC)N(C)[C@H]1[C@@](O)(C(=O)OC)[C@H](OC(C)=O)[C@]4(CC)C=CCN5CC[C@]31[C@@H]54)C2` [VINORELBINE, vinorelbine, reference compound], the inhibition at 1 µg/mL with MCF-7 was 50%; with T24, 62%; in the assay with T47D, 16%; with J82, 14%. Besides, in the assay with MXT adenocarcinoma, the “activity on the MXT model” value is given as “devoid of activity”.
Take `CC[C@]1(O)C[C@@H]2CN(CCc3c([nH]c4ccccc34)[C@@](C(=O)OC)(c3cc4c(cc3OC)N(C=O)[C@H]3[C@@](O)(C(=O)OC)[C@H](OC(C)=O)[C@]5(CC)C=CCN6CC[C@]43[C@@H]65)C2)C1` [vincristine]: the “activity on the MXT model” value in the assay with MXT adenocarcinoma was “devoid of activity”.
Still for that read-out and setting: the value for `CC[C@]1(O)C[C@@H]2CN(CCc3c([nH]c4ccccc34)[C@@](C(=O)OC)(c3cc4c(cc3OC)N(C)[C@H]3[C@@](O)(C(N)=O)[C@H](O)[C@]5(CC)C=CCN6CC[C@]43[C@@H]65)C2)C1` [vindesine] was “devoid of activity”.
